Results published in article PMC9970268 (Cancer Research Communications, 2022).
Where two headings read alike, the source gives them in different places. One block for each compound: values may come before it.

How the values were obtained:
MDA-MB-231 cells [1] = assay: Phalloidin staining of F-actin, cell phenotype; assay type: cell-based, human; details: 250 nmol/L, 12 hours
From the text: Cells were fixed, permeabilized, and stained with rhodamine phalloidin to visualize F-actin as described previously ([23]). Fluorescence micrographs were acquired at 40× in a Keyence fluorescence microscope.

MDA-MB-231 cells [2] = assay: Wound healing assay; assay type: cell-based, human; details: 250 nmol/L; 12 and 24 hours
Experimental: MDA-MB-231 cells were plated on 12-well plates at equal cell density until confluent. Then the media was changed to 1% FBS, and a single scratch was made in the center of the monolayer culture with a pipet tip. Compounds were added immediately at 250 or 500 nmol/L and images were digitally acquired from a Keyence microscope (10×) at 0, 12, and 24 hours. The scratch area was quantified in ImageJ using the Macro Wound Healing Tool (http://dev.mri.cnrs.fr/projects/imagej-macros/wiki/Wound_Healing_Tool; n = 3 biologic replicates: with three technical replicates each).

GFP-HER2-BM cells [3] = assay: Apoptosis assay (Caspase-Glo3/7); assay type: cell-based, human; details: 500 nmol/L, 48 hours
Experimental: (§1) Apoptosis was measured using a Caspase-Glo3/7 Luminescence Assay Kit as per manufacturer's instructions (Promega, Corp.), as described previously ([23]). Briefly, Caspase-3/7 Glo reagent was added and incubated at room temperature for 60 minutes and caspase-3/7 activities were determined by detecting luminescence using Tecan Microplate Reader M100 (Tecan). Data were calculated as fold change from vehicle. (n = 3 biologic replicates: with three technical replicates each).

MDA-MB-231 cells [4] = assay: Apoptosis assay (Caspase-Glo3/7); assay type: cell-based, human; details: 500 nmol/L, 48 hours
Experimental: as §1

[5] = biological target: T1, Rac1(G15A) interaction with Vav2 (Homo sapiens, UniProt P63000, G15A); assay: Rac1 (G15A) pulldown assay, Vav2; assay type: binding; details: for potency relative to EHop-016 (parent compound): Vav/Rac inhibitor
T1 construct: purchased Cell Biolabs; host or cells: GEF from MDA-MB-231 lysate
Experimental: MDA-MB-231 cells were lysed in 1% Triton X-100, 20 mmol/L HEPES, pH 7.4, 150 mmol/L NaCl, 5 mmol/L MgCl2, and protease inhibitors, and processed as described previously ([20]). Equal amounts of protein from cleared lysates were incubated for 1 hour at 4°C with glutathione-agarose beads conjugated to GST-Rac1 and GST-Cdc42(G15A) nucleotide-free mutant (Cell Biolabs) that were preincubated (for 1 hour) with vehicle or Rac/Cdc42 inhibitors, as indicated. The beads were washed, and pulldowns were immunoblotted for Vav2 or Ect2.

Rac1B splice variant = Rac1B splice variant (Homo sapiens, UniProt P63000); assay: Rac1B activation pulldown assay in MDA-MB-468 cells; details: MDA-MB-468, read-out: inhibition of Rac1B activation, MDA-MB-468, 500 nmol/L, 24 hours
[6] = test system: MDA-MB-231, GFP-HER2-BM, and MDA-MB-468 cells; assay: Apoptosis assay (Caspase-Glo3/7), cell line not specified; assay type: cell-based, human; details: 500 nmol/L, 48 hours
Experimental: as §1

A549 lung cancer cells = assay: EGF-induced ruffle formation; assay type: cell-based, human; details: 24 hours, then EGF 200 ng/mL
Experimental: Cells were fixed with 4% formaldehyde and F-actin stained with rhodamine phalloidin. Slides were visualized by fluorescence microscopy and five random fields were scored for the number of ruffles. Ruffle area was measured by thresholding for single intensity using ImageJ/Fiji software, as in ref. [29].

Rac1 [7] = biological target: Rac1 (Homo sapiens, UniProt P63000); assay: Rac activation pulldown assay in MDA-MB-231 cells; details: MDA-MB-231, read-out: inhibition of Rac1 activity, MDA-MB-231, 250 nmol/L, 24 hours
GFP-HER2-BM cells [8] = assay: Cell viability (MTT) assay; assay type: cell-based, human
Experimental: (§2) Using CellTiter 96 Non-Radioactive Cell Proliferation Assay (Promega, Corp.) according to manufactures’ instructions, formazan was used as an indicator of viable cells at an absorbance 570 nm in a Tecan Microplate Reader M100 (Tecan). Data were calculated as fold change from vehicle and transformed to logarithm base 10. 0 concentration was replaced with 1 nmol/L to fit using the 4-parameter logic nonlinear regression model in GraphPad Prism software. (n = 3 biologic replicates: with three technical replicates each).
(§3) All half maximal growth inhibitory concentration (GI50) values were determined by using the 4-parameter logistic curve model in GraphPad Prism 9 software. Statistical analyses were done also using GraphPad Prism 9 software, and differences were considered statistically significant at P ≤ 0.05 using ordinary one-way ANOVA or unpaired Student t test with Dunnet multiple comparison tests.

MDA-MB-231 cells [9] = assay: Cell viability (MTT) assay; assay type: cell-based, human
Experimental: as §2, §3

MCF10A cells = assay: Cell viability (MTT) assay; assay type: cell-based, human
Experimental: as §2, §3

MDA-MB-468 cells [10] = assay: Cell viability (MTT) assay; assay type: cell-based, human; details: 500 nmol/L, 72 hours
Experimental: as §2

HMEC cells = assay: Cell viability (MTT) assay; assay type: cell-based, human; details: 120 hours, 0 to 1,000 nmol/L
Experimental: as §2

MCF7 breast cancer cells = assay: Cell viability (MTT) assay; assay type: cell-based, human; details: 250 nmol/L, 120 hr
Experimental: as §2
Supplementary Figure S1. Percentage cell viability of MDA-MB-231, GFP-HER2-BM, […]
nM for 120 hr. The bar graphs are presented as individual fold change data points from vehicle and grouped mean ± SEM. (n = 3; *, P < 0.05; ** P < 0.01).
(1 picture or pasted object on this page, not shown here)

Rac = details: cited from earlier work
CYP2C19 = biological target: T2, CYP2C19 (Homo sapiens, UniProt P33261); assay: CyP450 enzyme assay (P450-Glo); assay type: in vitro ADME
T2 construct: purchased Promega
Experimental: (§4) The assay was carried out using P450-Glo Screening System (Promega). The system contained recombinant human CYP enzyme and P450 reductase (and cytochrome b5 for CYP2C9, 2C19, and 3A4), luminogenic substrates appropriate for each CYP enzyme, a NADPH regeneration system (containing NADP+), and luciferin detection reagent. […] These compounds and organic solvents acetonitrile, and DMSO were purchased from Sigma-Aldrich.
(§5) First, 12.5 μL of the 4X stock solution of test compounds or positive controls (appropriate for each enzyme) were added to the “treated” wells. For the “untreated” (the values from these wells represent total CYP activity) and “minus-P450 control” wells (the values from these wells represent the CYP-independent background luminescence of the assay), 12.5 μL of vehicle was added. Then, 12.5 μL of the 4X control reaction mixture (containing membrane preparations devoid of CYP enzymes, the appropriate luminogenic substrate, and potassium phosphate buffer) were added to the minus-P450 control wells, and 12.5 μL of the 4X reaction mixture (containing human CYP membrane preparations, the appropriate luminogenic substrate, and potassium phosphate buffer) were added to all other wells. The plates were preincubated at room temperature for 10 minutes with the reaction mixture (membrane with enzyme, substrate, and 1 mol/L potassium phosphate buffer), and then 2X NADPH regeneration system was added to initiate the reaction. After incubation at room temperature for 30 minutes, 50 μL of the Luciferin Detection Reagent was added to stop the reaction and generate the luminescent signal. Before reading, the plate was incubated at room temperature for 20 minutes to stabilize the luminescent signal. The luminescence was measured using an Infinite F200 plate reader (Tecan). […] The percentage of CYP enzyme activity versus log concentration of test compounds were plotted to calculate the IC50 values.

CYP3A4 = biological target: T3, CYP3A4 (Homo sapiens, UniProt P08684); assay: CyP450 enzyme assay (P450-Glo); assay type: in vitro ADME; details: recombinant human CYP enzyme, 0.001–100 μmol/L
T3 construct: purchased Promega
Experimental: as §4, §5

CYP2C9 = biological target: T4, CYP2C9 (Homo sapiens, UniProt P11712); assay: CyP450 enzyme assay (P450-Glo); assay type: in vitro ADME; details: recombinant human CYP enzyme, 0.001–100 μmol/L
T4 construct: purchased Promega
Experimental: as §4, §5

Rac1 [11] = test system: Rac1; set-up: method as in PMID 15128949; details: inhibits Rac1 binding and activation by the GEFs Trio and Tiam1; cited from earlier work
MDA-MB-468 cells [12] = assay: Apoptosis assay (Caspase-Glo3/7); assay type: cell-based, human; details: 500 nmol/L, 48 hours
Experimental: as §1

Cdc42 = test system: Cdc42; set-up: method as in PMID 23382385; details: read-out: IC50, Cdc42 selective inhibitor; cited from earlier work
[13] = test system: GFP-HER2-BM, MDA-MB-231, and MDA-MB-468 cancer cell lines; assay: Cell viability (MTT) assay, three cancer cell lines together; assay type: cell-based, human
Experimental: as §2

T2 sequence (P33261 whole entry): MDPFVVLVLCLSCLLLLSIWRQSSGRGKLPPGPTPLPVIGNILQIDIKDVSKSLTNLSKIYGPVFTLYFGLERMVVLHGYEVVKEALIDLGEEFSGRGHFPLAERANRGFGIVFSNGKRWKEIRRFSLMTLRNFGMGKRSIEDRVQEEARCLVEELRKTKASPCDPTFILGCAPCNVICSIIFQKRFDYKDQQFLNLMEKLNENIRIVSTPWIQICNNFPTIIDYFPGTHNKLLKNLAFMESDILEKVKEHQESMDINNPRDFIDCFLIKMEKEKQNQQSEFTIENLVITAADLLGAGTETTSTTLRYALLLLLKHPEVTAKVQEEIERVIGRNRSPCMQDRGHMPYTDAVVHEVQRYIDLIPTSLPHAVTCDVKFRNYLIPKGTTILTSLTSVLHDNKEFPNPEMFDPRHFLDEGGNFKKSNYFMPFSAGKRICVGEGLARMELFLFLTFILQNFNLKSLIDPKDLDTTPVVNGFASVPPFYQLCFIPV
T4 sequence (P11712 whole entry): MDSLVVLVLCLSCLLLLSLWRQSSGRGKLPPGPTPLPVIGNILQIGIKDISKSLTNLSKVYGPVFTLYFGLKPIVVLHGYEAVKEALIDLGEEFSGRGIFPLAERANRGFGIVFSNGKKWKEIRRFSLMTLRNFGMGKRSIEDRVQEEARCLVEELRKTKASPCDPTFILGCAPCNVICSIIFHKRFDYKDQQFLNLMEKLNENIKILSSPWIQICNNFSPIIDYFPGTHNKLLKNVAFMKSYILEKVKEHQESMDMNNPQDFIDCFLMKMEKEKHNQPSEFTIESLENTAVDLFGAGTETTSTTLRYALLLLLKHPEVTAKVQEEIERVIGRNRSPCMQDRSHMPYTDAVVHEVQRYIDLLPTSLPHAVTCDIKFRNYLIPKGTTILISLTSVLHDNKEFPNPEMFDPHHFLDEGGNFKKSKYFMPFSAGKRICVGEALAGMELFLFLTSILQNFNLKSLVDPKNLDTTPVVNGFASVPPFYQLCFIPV
T3 sequence (P08684 whole entry): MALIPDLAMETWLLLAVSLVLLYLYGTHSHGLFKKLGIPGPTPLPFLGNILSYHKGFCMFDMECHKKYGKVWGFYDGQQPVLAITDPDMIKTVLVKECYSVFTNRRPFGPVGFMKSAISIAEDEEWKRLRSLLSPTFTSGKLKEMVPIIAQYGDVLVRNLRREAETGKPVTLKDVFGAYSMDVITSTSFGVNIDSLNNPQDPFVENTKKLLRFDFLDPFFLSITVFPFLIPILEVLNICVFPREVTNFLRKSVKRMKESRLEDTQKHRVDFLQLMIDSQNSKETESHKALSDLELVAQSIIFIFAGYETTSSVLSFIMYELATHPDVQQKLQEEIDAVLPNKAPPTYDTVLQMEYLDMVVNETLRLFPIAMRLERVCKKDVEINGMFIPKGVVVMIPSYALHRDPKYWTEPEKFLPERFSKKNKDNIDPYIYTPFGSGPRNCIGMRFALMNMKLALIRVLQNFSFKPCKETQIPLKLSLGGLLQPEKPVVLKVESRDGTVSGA

Rac1(G15A) interaction with Vav2 ([5]; 250 nmol/L, 1 hour preincubation, MDA-MB-231 cell lysates): blocked the interaction
efficacy compared with EHop-016 at 8 μmol/L ([5]; EHop-097 at 250 nmol/L): 4 X
potency relative to EHop-016 (parent compound) [5]: 10–30 ×
potency relative to EHop-016 (parent compound) ([5]; listed as Ehop-097): 10 ×
inhibition at 0.5 µM (Rac1B splice variant): ~60%
inhibition at 0.25 µM (Rac1 [7]): ~85%
GI50 (MDA-MB-231 cells [9]; Homo sapiens, MDA-MB-231, 120 hours, 0 to 1,000 nmol/L): 327 nM
SMILES: CCn1c2ccccc2c2cc(-n3nnc(C(O)c4cccc(OC)c4)c3-c3ccccc3)ccc21 (stereo not drawn) [EHop-097]
cell phenotype, actin cytoskeleton (MDA-MB-231 cells [1]): smaller and less spread but did not have the characteristic loss of polarity
wound closure (MDA-MB-231 cells [2]): wound area was maintained at 12 and 24 hours
Caspase-3/7 activity (GFP-HER2-BM cells [3]): significantly increased Caspase-3/7 activity
Caspase-3/7 activity (MDA-MB-231 cells [4]): significantly increased Caspase-3/7 activity
caspase-3/7 activity compared with the vehicle [6]: three to five times
loss in ruffles (A549 lung cancer cells; 500 nmol/L): 33%
decrease in ruffles (A549 lung cancer cells; 1,000 nmol/L): 58%
inhibition of cell viability (GFP-HER2-BM cells [8]; 250 nmol/L, 120 hr): approximately 60%
inhibition of cell viability (GFP-HER2-BM cells [8]; 500 nmol/L, 72 hours): 80%
GI50 (GFP-HER2-BM cells [8]; Homo sapiens, 120 hours, 0 to 1,000 nmol/L): 261 nM
inhibition of cell viability (MDA-MB-231 cells [9]; 250 nmol/L, 120 hr): not effective
inhibition of cell viability (MDA-MB-231 cells [9]; 500 nmol/L, 72 hours): 50%
inhibition of cell viability (MCF10A cells; 250 nmol/L, 120 hr): not effective
GI50 (MCF10A cells; Homo sapiens, MCF-10A, 120 hours, 0 to 1,000 nmol/L): 335 nM
inhibition of cell viability (MDA-MB-468 cells [10]): nonstatistically significant trend
effect on viability of HMECs (HMEC cells): did not affect the viability of HMECs
inhibition of cell viability (MCF7 breast cancer cells): not effective

SMILES: CCn1c2ccccc2c2cc(Nc3ccnc(NCCCN4CCOCC4)n3)ccc21 [EHop-016]
IC50 (Rac; blocking the interaction of Rac with the GEF Vav): 1.1 µM

SMILES: O=C(C#Cc1ccccc1)c1cccc([N+](=O)[O-])c1 [MLS000532223]
IC50 (Rac): > 10 µM

IC50 (CYP2C19; recombinant human CYP enzyme, 0.001–100 μmol/L): 12.4 µM
IC50 (CYP3A4): 8.04 µM
IC50 (CYP2C9): 1550 nM
SMILES: CCn1c2ccccc2c2cc(-n3nncc3-c3cccnc3)ccc21 [MBQ-171]
inhibition of cell viability (GFP-HER2-BM cells [8]; 500 nmol/L, 72 hours): approximately 75%

CYP2C19 IC50, fold lower than the IC50 for the positive control (CYP2C19): approximately 6 fold
IC50 at 30 min (CYP2C19; human, recombinant human CYP enzyme, 0.001–100 μmol/L): 580 nM
IC50 (CYP3A4): 3.31 µM
IC50 (CYP2C9): 870 nM
SMILES: CCn1c2ccccc2c2cc(-n3nncc3-c3cccc(C)c3)ccc21 [MBQ-169]
Caspase-3/7 activity (GFP-HER2-BM cells [3]): significantly increased Caspase-3/7 activity
inhibition of cell viability (GFP-HER2-BM cells [8]; 500 nmol/L, 72 hours): approximately 75%

SMILES: CCn1c2ccccc2c2cc(-n3nnc(C(O)c4cccnc4)c3-c3ccccc3)ccc21 (stereo not drawn) [EHop-040]
Caspase-3/7 activity (GFP-HER2-BM cells [3]): significantly increased Caspase-3/7 activity
Caspase-3/7 activity (MDA-MB-468 cells [12]): significantly increased Caspase-3/7 activity
inhibition of cell viability (GFP-HER2-BM cells [8]; 500 nmol/L, 72 hours): 80%

SMILES: COc1ccc(C2=NN(c3ccc(S(N)(=O)=O)cc3)C(c3ccccc3)C2)cc1 (stereo not drawn) [ML141]
IC50 (Cdc42): 3 to 5 µM

SMILES: CCn1c2ccccc2c2cc(-n3nncc3-c3ccccn3)ccc21 [MBQ-170]
effect on viability of cancer cells [13]: did not affect the viability of cancer cells
wound closure (MDA-MB-231 cells [2]): wound was closed in 24 hours

SMILES: CCn1c2ccccc2c2cc(-n3nnc(C(O)c4ccco4)c3-c3ccccc3)ccc21 (stereo not drawn) [EHop-098]
inhibition of cell viability (GFP-HER2-BM cells [8]; 500 nmol/L, 72 hours): 80%

SMILES: O=c1cc(CN2CCOCC2)occ1OCCCCCSc1ccnc2cc(C(F)(F)F)ccc12 [EHT1864]
IC50 (Rac): > 10 µM
